Assay results from the OPERA property sets (Mansouri et al. 2018).
Where a SMILES comes first, the peptide text is derived from it.

With `CCC(C)C(NC(=O)C(NC(=O)C(N)CC(C)C)C(C)CC)C(=O)O` (stereo not drawn) (H-Leu-Ile-Ile-OH; configuration not given here) the logP was -1.11. Work on `CCC(CC)C(=O)NS(=O)(=O)c1ccc(C(F)(F)F)cc1[N+](=O)[O-]` yielded a logP of 3.57. In the case of `CC(C)NCC(O)COc1ccc(NC=O)cc1` (centres undefined), the logP is reported as 0.54. With `Cc1ccc(C(=O)NN=Cc2c(CO)ccc(C)c2O)cc1` the logP was 3.39. `CN1CCN(C2=NC(=O)N(c3ccc(Cl)cc3)C2)CC1` gave a logP of 2.2. With `Cc1ccnc2c1NC(=O)c1cccnc1N2C1CC1` the logP was 1.81. In the case of `COc1c([N+](=O)[O-])cc(C(=O)O)cc1[N+](=O)[O-]`, the logP is reported as 1.73. In the case of `CCCC(=O)OC1Cc2c(O)cc(O)cc2OC1c1ccc(O)c(O)c1` (centres undefined), the logP is reported as 2.47. `O=C1C(NCCO)=C(N2CC2)C(=O)C(NCCO)=C1N1CC1` gave a logP of -1.47. For `COc1ccc(C2Cc3c(cccc3C(F)(F)F)N(CCN(C)C)C(=O)C2OC(C)=O)cc1` (centres undefined), the logP was 4.9. Compound `CCOCCCNc1[nH]cnc2ncnc1-2` has a logP of 1.15. Work on `CCC(C)NCc1cccc(S(=O)(=O)c2csc(S(N)(=O)=O)c2)c1` (centres undefined) yielded a logP of 2.13. For `CC1CCN(CC2CN=C(N)O2)CC1` (centres undefined), the logP was 0.91. `COc1nc(N)nc(NC(C)(C)C)n1` showed a logP of 1.93. `CC(C)NC(=NC#N)NS(=O)(=O)c1cnccc1Nc1cccc(I)c1` showed a logP of 2.51. For `CNc1nccn2c(Cc3ccccc3F)nnc12`, the logP was 1.56. `CC(C)C1(C)N=C(c2ncc(-c3ccccc3)cc2C(=O)O)NC1=O` (centres undefined) gave a logP of 2.24. With `Cc1cc2c(ccc3c(C)c(C)c(=O)oc32)o1` the logP was 3.27. `CCCCCCCCCCCCN=C=S` showed a logP of 7.13.
